Experimental data taken from patent US20030008338A1, “Assay methods and kits therefor” (LumiTech (UK) Limited, priority 2000, published 2003).

Columns and labels:
Format in all cases: cell-based
K562 cells = assay: AK release bioluminescence assay, K562 cells incubated with ionomycin; parameters: cytolysis versus control cells at the lowest concentration: dose or concentration left out as unconfirmed
Protocol: (§1) A number of different cell types have been tested for induction of cytotoxicity with soluble agents. Cytolysis is determined after incubation with the agent, when the cell membrane has lost integrity and AK can ‘leak’ out into the surrounding culture medium. The assay is performed by incubating non-microbial (e.g. mammalian) cells, either cell lines or primary cell types including isolated tumour cells, with the agonist(s) of choice. After an appropriate incubation time the cells are simply removed from the incubator and AK activity determined in the culture supernatant. If the cells have been cultured in clear bottomed, white walled plates (Perkin Elmer Life Sciences) in volumes no greater than 100 μl, then the plates are simply placed in a luminometer equipped with injection facilities and 150 μl of AKR added to each of the wells, where an integral reading of light output is measured over 1 second. When using luminometers without injectors the AKR can be added manually preferably using a multichannel pipette. The light output is read as soon after addition of reagent as possible. The increase in light output over the complete medium control is the result of the leakage of AK from damaged cells as a result of incubation with cytolytic inducing substances.
Example 3: Ionomycin is a calcium ionophore that acts as a mobile ion carrier for Ca^2+. We investigated increasing concentrations of this agent on K562 cells. As with the previous examples, the cells were set up in 100 μl volumes in triplicate wells of a 96 well Isoplate™. The concentrations of ionomycin (Sigma) used were […]. Cells were incubated for three hours in the presence of the agent prior to determination of AK activity. The data shown in FIG. 7 are for the 1-second integral reading taken at time 0 using the Wallac MicroBeta Jet.

U937 cells = assay: AK release bioluminescence assay, U937 cells incubated with camptothecin
Protocol: as §1
Example 2: A second model known to induce secondary necrosis is the incubation of U937 cells (ECACC No: 87010802) with camptothecin (Sigma). The cells were set up in triplicate wells of a white Isoplate™ (Perkin Elmer Life Sciences) at serial doubling dilutions of cells with 1000 nM camptothecin. The cells were then incubated with the drug for 4 hours and AK activity was determined as outlined in example 1. […] In the control cells there was a slight increase in AK activity over the complete medium control, but the increase in the presence of the drug was much greater, nearly 3 fold (2.6).

Cem-7 cells = assay: AK (adenylate kinase) release bioluminescence assay, Cem-7 cells incubated with dexamethasone
Protocol: as §1
Example 1: We have investigated 37 different cell lines and models of apoptosis/necrosis induction. One of the first models investigated for this assay was the incubation of Cem-7 cells with dexamethasone. Two different experiments were performed: one experiment where cells at different cell numbers/well were incubated with one concentration of dexamethasone (500 nM, Sigma) for 48 and 72 hours, and another experiment where cells at 5000/well were incubated with increasing concentrations of the agent (0, 10, 25, 50, 75, 100, 150, 200 nM) for 72 hours. The cell suspensions were incubated in 100 μl in triplicate wells of a 96 well clear-bottomed white walled microtitre plate (Perkin Elmer Isoplate™). At the end of the incubation period the plates were assayed for AK activity using the Wallac Microbeta Jet, with 150 μl of AKR added and the RLUs (1 second integral) read at time 0 and every 5 minutes for 45 minutes. […] At 2500 cells per well the activity had increased by 71% from 15 913 RLUs at 48 hours to 27 266 RLUs at 72 hours.

[1] = camptothecin from 50 to 1000 μM, cells at 2500/well

With `C[C@H](CCC(=O)O)C[C@H](C)C[C@H](C)C(=O)/C=C(\O)[C@H](C)C[C@H](C)C/C=C/[C@@H](C)[C@@H](O)[C@@H](C)[C@@H](O)C[C@@H]1CC[C@@](C)([C@H]2CC[C@@](C)([C@@H](C)O)O2)O1` [Ionomycin] the “AK activity with all concentrations of the agent” value (K562 cells; FIG. 7, increasing concentrations of ionomycin) was “significant increase in AK activity”, the “effect on AK activity with increasing concentrations” value (K562 cells; ionomycin 1, 2, 3, 4 and 5 mM, three hours, time 0 reading) was “concentration dependent effect” and the “cytolysis versus control cells at the lowest concentration” value (K562 cells; lowest ionomycin concentration, three hours) was “significant increase in cytolysis”.

`CC[C@@]1(O)C(=O)OCc2c1cc1n(c2=O)Cc2cc3ccccc3nc2-1` [camptothecin] was tested, and the “increase in AK activity in the presence of the drug” value (U937 cells; 1000 nM camptothecin, 4 hours) was 2.6 fold, the “cell numbers at which the increase in activity was seen” value (U937 cells; 1000 nM camptothecin, 4 hours, serial doubling dilutions of cells) was “above 156 /well” and the “concentration at which cytolysis appears” value (U937 cells; [1]) was 100 µM. For the same molecule, the “enzyme (AK) activity with increasing concentrations” value (U937 cells; [1]) was “concentration dependent increase in enzyme activity”.

For `C[C@@H]1C[C@H]2[C@@H]3CCC4=CC(=O)C=C[C@]4(C)[C@@]3(F)[C@@H](O)C[C@]2(C)[C@@]1(O)C(=O)CO` [dexamethasone], the AK release (Cem-7 cells; 200 nM dexamethasone, 72 hours, 5000 cells/well) was 16900 RLU, the “increase in AK activity from 48 hours to 72 hours” value (Cem-7 cells; 500 nM dexamethasone, 2500 cells per well) was 71% and the AK activity (Cem-7 cells; 500 nM dexamethasone, 48 hours, 2500 cells per well) was 15 913 RLUs. The AK activity (Cem-7 cells; 500 nM dexamethasone, 72 hours, 2500 cells per well) was 27 266 RLUs.
